Results taken from patent US7632829B2, “Diazepan derivatives” (Hoffmann-La Roche Inc., priority 2006, dated 2009).

biological target: T1, human chemokine receptor 2 isoform B (Homo sapiens, UniProt P41597); experiment: Calcium mobilization assay (FLIPR, CHOK1-CCR2B-A5 cells, 20 nM MCP-1); type: cell-based; details: Ca mobilisation assay, CCR2, antagonist activity vs 20 nM MCP-1
T1 construct: host or cells: CHOK1-CCR2B-A5 (CHO-K1)
T1 sequence (P41597 1-360 isoform P41597-2): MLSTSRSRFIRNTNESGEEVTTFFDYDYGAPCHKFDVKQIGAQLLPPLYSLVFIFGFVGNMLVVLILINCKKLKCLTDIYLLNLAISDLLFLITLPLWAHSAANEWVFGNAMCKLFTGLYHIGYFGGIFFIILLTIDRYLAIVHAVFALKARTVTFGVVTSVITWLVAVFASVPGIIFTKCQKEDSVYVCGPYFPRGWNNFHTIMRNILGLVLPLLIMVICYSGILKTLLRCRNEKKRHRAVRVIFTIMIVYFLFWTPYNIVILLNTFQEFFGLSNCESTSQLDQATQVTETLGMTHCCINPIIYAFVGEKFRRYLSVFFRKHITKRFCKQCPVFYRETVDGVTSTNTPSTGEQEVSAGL
Method in brief: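 Antagonism read as IC50 against 20 nM MCP-1-evoked calcium rise (peak minus baseline Fluo-4 signal, FLIPR) in CCR2B-overexpressing CHO-K1 cells. Compounds were preincubated 20-30 min at 30 °C, with agonist activity recorded for 80 s on addition.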

Molecule | IC50
O=C(/C=C/c1ccc(F)c(F)c1)N1CCC(=O)N(CC(O)CN2CCCCC2)CC1 (racemic) [Example 177, (rac)-1-[(E)-3-(3,4-Difluoro-phenyl)-acryloyl]-4-(2-hydroxy-3-piperidin-1-yl-propyl)-[1,4]diazepan-5-one] | 954 nM
O=C(/C=C/c1ccc(Cl)c(Cl)c1)N1CCC(=O)N(CC(O)CN2CCC(F)CC2)CC1 (racemic) [Example 169, (rac)-1-[(E)-3-(3,4-Dichloro-phenyl)-acryloyl]-4-[3-(4-fluoro-piperidin-1-yl)-2-hydroxy-propyl]-[1,4]diazepan-5-one] | 255 nM
O=C1NC(=O)C2(CCN(CCCN3CCN(C(=O)/C=C/c4ccc(F)c(Cl)c4)CCC3=O)CC2)N1 [Example 194] | 494 nM
CN(CCO)CCCCN1CCN(C(=O)/C=C/c2ccc(Cl)c(Cl)c2)CCC1=O [Example 460] | 832 nM
CC1CCC(NCCN2CCN(C(=O)/C=C/c3ccc(Cl)c(Cl)c3)CCC2=O)CC1 (mixture of isomers) [Example 138, cis/trans-1-[(E)-3-(3,4-Dichloro-phenyl)-acryloyl]-4-{3-[(4-methyl-cyclohexyl)-amino]-ethyl}-[1,4]diazepan-5-one] | 1260 nM
CC1(CO)CCN(CC(O)CN2CCN(C(=O)C=Cc3ccc(Cl)c(Cl)c3)CCC2=O)CC1O (single isomer, unassigned) [Example 330] | 6 nM
CC1(CO)CCN(CCCCN2CCN(C(=O)/C=C/c3ccc(Cl)c(Cl)c3)CCC2=O)CC1 (racemic) [Example 459] | 267 nM
COC(=O)C(CCCN1CCCCC1)N1CCN(C(=O)/C=C/c2ccc(Cl)c(Cl)c2)CCC1=O (racemic) [Example 179, (rac)-2-{4-[(E)-3-(3,4-Dichloro-phenyl)-acryloyl]-7-oxo-[1,4]diazepan-1-yl}-5-piperidin-1-yl-pentanoic acid methyl ester] | 3 nM
COC(=O)NC1CCN(CCCCN2CCN(C(=O)/C=C/c3ccc(F)c(Cl)c3)CCC2=O)CC1 [Example 401] | 92 nM
O=C(/C=C/c1ccc(Cl)c(Cl)c1)N1CCC(=O)N(CCCNC2CCOCC2)CC1 [Example 63, 1-[(E)-3-(3,4-Dichloro-phenyl)-acryloyl]-4-[3-(tetrahydro-pyran-4-ylamino)-propyl]-[1,4]diazepan-5-one] | 503 nM
CC1CCCCC1NCCCN1CCN(C(=O)C=Cc2ccc(Cl)c(Cl)c2)CCC1=O (mixture of isomers) [Example 64, cis/trans-1-[(E)-3-(3,4-Dichloro-phenyl)-acryloyl]-4-[3-(2-methyl-cyclohexylamino)-propyl]-[1,4]diazepan-5-one] | 391 nM
C[C@@H]1CN(CCCN2CCCCC2)C(=O)CCN1C(=O)/C=C/c1ccc(Cl)c(Cl)c1 [Example 186, (R)-1-[(E)-3-(3,4-Dichloro-phenyl)-acryloyl]-2-methyl-4-(3-piperidin-1-yl-propyl)-[1,4]diazepan-5-one] | 38 nM
CC1(C)CN(CC(O)CN2CCN(C(=O)/C=C/c3ccc(Cl)c(Cl)c3)CCC2=O)CCC1O (racemic) [Example 324] | 215 nM
COC[C@H]1CCN(C[C@H](O)CN2CCN(C(=O)/C=C/c3ccc(Cl)c(Cl)c3)CCC2=O)C[C@H]1O (mixture of isomers) [Example 329, 1-[(E)-3-(3,4-Dichloro-phenyl)-acryloyl]-4-[(S)-2-hydroxy-3-(cis-3-hydroxy-4-methoxymethyl-piperidin-1-yl)-propyl]-[1,4]diazepan-5-one] | 137 nM
4-(3-{4-[(E)-3-(3,4-Dichloro-phenyl)-acryloyl]-7-oxo-[1,4]diazepan-1-yl}-propylamino)-cyclohexanecarboxylic acid amide [Example 77] | 326 nM
COC[C@H]1CCN(CCCN2CCN(C(=O)/C=C/c3ccc(Cl)c(Cl)c3)CCC2=O)C[C@H]1O (racemic) [Example 267, (rac,cis)-1-[(E)-3-(3,4-Dichloro-phenyl)-acryloyl]-4-[3-(3-hydroxy-4-methoxymethyl-piperidin-1-yl)-propyl]-[1,4]diazepan-5-one] | 214 nM
O=C(C=Cc1ccc(Cl)c(Cl)c1)N1CCC(=O)N(CCNC2CCCCC2O)CC1 (stereo not drawn) [Example 357] | 385 nM
O=C(/C=C/c1ccc(Cl)c(Cl)c1)N1CCC(=O)N(CCCN2CCC3(CC3)C(O)C2)CC1 (racemic) [Example 251] | 8 nM
C[C@H]1[C@H](O)CCCN1CC(O)CN1CCN(C(=O)/C=C/c2ccc(Cl)c(Cl)c2)CCC1=O (mixture of isomers) [Example 282] | 212 nM
CC1CCN(CCCN2CCN(C(=O)C=Cc3ccc(Cl)c(F)c3)CCC2=O)CC1O (single isomer, unassigned) [Example 491, 1-[(E)-3-(4-Chloro-3-fluoro-phenyl)-acryloyl]-4-[3-((+,cis)-3-hydroxy-4-methyl-piperidin-1-yl)-propyl]-[1,4]diazepan-5-one] | 216 nM
CC1(O)CCCN(CCCN2CCN(C(=O)/C=C/c3ccc(Cl)c(Cl)c3)CCC2=O)C1 (racemic) [Example 232] | 91 nM
COCC1CCC(O)CN1CCCCN1CCN(C(=O)/C=C/c2ccc(Cl)c(Cl)c2)CCC1=O (racemic) [Example 479] | 232 nM
O=C(/C=C/c1ccc(Cl)c(Cl)c1)N1CCC(=O)N(CCCN2CCC(N3CCNC3=O)CC2)CC1 [Example 56, 1-[(E)-3-(3,4-Dichloro-phenyl)-acryloyl]-4-{3-[4-(2-oxo-imidazolidin-1-yl)-piperidin-1-yl]-propyl}-[1,4]diazepan-5-one] | 1080 nM
CC1CCN(CCCN2CCN(C(=O)C=Cc3ccc(Cl)c(Cl)c3)CCC2=O)CC1O (single isomer, unassigned) [Example 260, 1-[(E)-3-(3,4-Dichloro-phenyl)-acryloyl]-4-[3-((−, cis)-3-hydroxy-4-methyl-piperidin-1-yl)-propyl]-[1,4]diazepan-5-one] | 9 nM
N#CC1(c2ccccc2)CCN(CCCN2CCN(C(=O)/C=C/c3ccc(Cl)c(Cl)c3)CCC2=O)CC1 [Example 60, 1-(-3-{4-[(E)-3-(3,4-Dichloro-phenyl)-acryloyl]-7-oxo-[1,4]diazepan-1-yl}-propyl)-4-phenyl-piperidine-4-carbonitrile] | 23 nM
O=C(/C=C/c1ccc(F)c(Cl)c1)N1CCC(=O)N(C[C@@H](O)CN2CC[C@@H](CO)[C@H](O)C2)CC1 (mixture of isomers) [Example 339, 1-[(E)-3-(3-Chloro-4-fluoro-phenyl)-acryloyl]-4-[(S)-2-hydroxy-3-(trans-3-hydroxy-4-hydroxymethyl-piperidin-1-yl)-propyl]-[1,4]diazepan-5-one] | 1360 nM
CN(CCCCN1CCN(C(=O)/C=C/c2ccc(Cl)c(Cl)c2)CCC1=O)C1CCOCC1 [Example 10, 1-[(E)-3-(3,4-Dichloro-phenyl)-acryloyl]-4-{4-[methyl-(tetrahydro-pyran-4-yl)-amino]-butyl}-[1,4]diazepan-5-one] | 73 nM
O=C(/C=C/c1ccc(Cl)c(Cl)c1)N1CCC(=O)N(CCCCN2CCC(O)C2)CC1 (racemic) [Example 433] | 244 nM
O=C(/C=C/c1ccc(Cl)c(Cl)c1)N1CCC(=O)N(CCCCN2CC[C@@H](CO)[C@H](O)C2)CC1 (racemic) [Example 471] | 43 nM
COC1COCCC1NCCCN1CCN(C(=O)C=Cc2ccc(Cl)c(Cl)c2)CCC1=O (mixture of isomers) [Example 275, (rac,cis)-1-[(E)-3-(3,4-Dichloro-phenyl)-acryloyl]-4-[3-(3-methoxy-tetrahydro-pyran-4-ylamino)-propyl]-[1,4]diazepan-5-one] | 1090 nM
